Patent publication US11202789B2, “Method of treating glycogen storage disease” (Viking Therapeutics, Inc., priority 2016, dated 2021)

Tested on: male ob/ob mice
Assay: 9-week efficacy and safety study in male ob/ob mice
Format: in vivo
Details: T3 100 nmole/kg/day SC
Procedure: The objective of this study was to evaluate the efficacy and safety of Compound 2 treatment at doses of 3, 10, and 30 mg/kg/day for 9 weeks in male ob/ob mice. 3,3′,5-Triiodo-L-thyronine (T3) was used as a comparator in this study.
Methods: Seventy-eight adult male ob/ob mice were assigned to six different treatment groups (n=6-24/group). Animals were dosed daily with either vehicle [1% carboxymethylcellulose (CMC) in water, PO], T3 [(100 nmole/kg/day in aqueous solution, subcutaneous (SC)], or Compound 2 [3, 10 or 30 mg/kg/day in 1% CMC, PO]. Blood glucose and plasma cholesterol were measured weekly in all animals. Subsets of animals in the vehicle-treated and 30 mg/kg/day Compound 2-treated groups were sacrificed after 3, 6 and 9 weeks of treatment to analyze the temporal effects of Compound 2 on liver weight and liver triglyceride levels. Liver triglyceride levels, liver glycogen content, heart, liver and epididymal fat pad weights, and plasma clinical chemistry parameters were measured at sacrifice.

N[C@@H](Cc1cc(I)c(Oc2ccc(O)c(I)c2)c(I)c1)C(=O)O [Compound T3, 3,3′,5-Triiodo-L-thyronine, reference compound]
ALT levels: decreased | increased plasma triglyceride levels: ~56% | plasma albumin levels: decreased | plasma calcium levels: decreased | total plasma protein levels: decreased | liver weight (9 weeks): lower | blood glucose levels (all time points, vs vehicle): similar | total plasma cholesterol lower (at 9 weeks, vs vehicle): ~66% | terminal liver glycogen levels (vs vehicle): similar | terminal liver triglyceride levels (vs vehicle): similar
